Test results from patent publication US11008346B2, “Beta-lactamase inhibitors” (priority 2014, dated 2021).
Like-named read-outs stand apart in the source and are kept apart here.

Legend:
[1] = biological target: T1, OXA-1 β-lactamase (Escherichia coli, UniProt P13661); test: β-lactamase enzyme inhibition, OXA-1; type: biochemical; details: Nitrocefin 100 μM, 486 nm; 15 min at 37° C. preincubation; read-out: IC50 OXA-1 (Class D)
T1 construct: made in house; host or cells: E. coli BL21(DE3)
Procedure: (§1) For SHV-5, Kpc-2, p99AmpC and OXA-1 β-lactamases, E. coli BL21(DE3) bacterial cells carrying expression plasmids (expressed as native untagged proteins) for the individual β-lactamases were grown in 1 L of Superbroth (Teknova Inc. Hollister, Calif.) supplemented with 100 μg/ml kanamycin selection and 1×5052 (0.5% glycerol, 0.05% glucose and 0.2% α-lactose) at 35° C. for 18-20 hours. Cells were harvested by centrifugation (4,000×g, 4° C., 20 min), resuspended in 50 ml of 10 mM HEPES pH 7.5 ( 1/20 of the initial volume). The cells were lysed by sonication (5 pulses of 45 seconds) at 45 W on ice. The lysates were clarified by centrifugation at 10,000×g for 40 minutes at 4° C. Samples were diluted 5-fold in 50 mM sodium acetate pH 5.0, stored overnight at 4° C., after which they were centrifuged at 10,000×g for 30 minutes to clarify, and filtered through 0.45 μm filters. The samples were loaded onto a 5 ml Capto S sepharose cation exchange column (GE Healthcare) pre-equilibrated with 50 mM sodium acetate pH 5.0. The column was washed with 5 column volumes of 50 mM sodium acetate pH 5.0 to wash out unbound protein and a linear gradient of NaCl (0 to 500 mM) was used to elute the protein (over 16 CV) from the column. Fractions were assayed for […] activity using Centa (Calbiochem, Gibbstown, N.J.) or Nitrocefin (EMD Millipore chemicals, Darmstadt, Germany) as a reporter β-lactamase substrate for activity in the isolated fractions. Active fractions were pooled, concentrated and further purified by gel filtration chromatography on a Superdex 75 prep grade gel filtration column (GE Healthcare, Piscataway, N.J.) pre-equilibrated in 50 mM Hepes pH 7.5, 150 mM NaCl. Active fractions were pooled, concentrated, and quantitated by BCA protein determination (Thermo Scientific, Rockford, Ill.), dialyzed into PBS and frozen at −80° C. in 20% glycerol until use.
(§2) An equal volume of diluted enzyme stock was added, and the plates were incubated at 37° C. for 15 min. Nitrocefin was used as substrate for p99 AmpC, VIM-2 and OXA-1 and dispensed into each well at a final concentration of 100 μM. Absorbance at 486 nm was immediately monitored for 10 min using a Biotek Powerwave XS2 microplate spectrophotometer using the GEN5 software package (Biotek Instruments, Winooski Vt.). In an analogous fashion, imipenem was used as substrate for KPC-2 and Cefotaxime was used for SHV-5, while changes in absorbance upon hydrolysis of the β-lactam ring were monitored at 300 nm and 260 nm respectively in UV-transparent 96-well microtiter assay plates. Maximum rates of hydrolysis were compared to those in control wells (without inhibitors), and percentages of enzyme inhibition were calculated for each concentration of inhibitor. The concentration of inhibitor needed to reduce the initial rate of hydrolysis of substrate by 50% (IC50) was calculated as the residual activity of β-lactamase at 486 nm using GraFit version 7 kinetics software package (Erithacus Software, Surrey, UK).
(§3) Using the methodology described above, examples of the current invention were evaluated for their ability to inhibit β-lactamase enzymes from all four Ambler classifications (A through D). […] NT=Not tested.

[2] = biological target: T2, p99 AmpC β-lactamase (Enterobacter cloacae, UniProt P05364); test: β-lactamase enzyme inhibition, p99 AmpC; type: biochemical
T2 construct: made in house; host or cells: E. coli BL21(DE3)
Procedure: as §1, §2
Using the methodology described above, examples of the current invention were evaluated for their ability to inhibit β-lactamase enzymes from all four Ambler classifications (A through D).

[3] = tested on: K. pneumoniae 156319 expressing KPC-3; test: broth microdilution MIC, K. pneumoniae KPC-3; type: cell-based; details: Fixed Mero (meropenem) 4 μg/mL
Description: (§4) To determine the ability of test compounds to potentiate the inhibition of the growth of bacterial strains that produce beta-lactamase enzymes, classic cell based broth microdilution MIC assays were employed. Six bacteria strains producing beta-lactamase enzymes were used: E. coli expressing the Class A Extended Spectrum Beta-Lactamase (ESBL) CTX-M-15, E. cloacae expressing the Class C P99, K. pneumoniae expressing the Class A carbapenemase KPC-3, P. aeruginosa expressing the Class B carbapenemase VIM-2, K pneumoniae expressing the class A carbapenemase KPC-2 and the class B carbapenemase VIM-4, and S. aureus producing the Class A penicillinase PC-1. The assay was conducted in Cation Adjusted Mueller Hinton Broth (CAMHB, BD #212322, BD Diagnostic Systems, Sparks, Md.). Bacteria strains were grown for 3-5 hours in CAMBH broth. Test compounds were added to a microtiter plate in 2-fold serial dilutions in CAMHB in a final concentration range of 32 μg/mL to 0.25 μg/ml. An overlay of CAMHB containing a Beta-lactam was added to the compounds at a final static concentration of 4 μg/ml. […] In addition to the titration of test compounds the MICs of a panel of control beta-lactams is also tested to ensure the strains are behaving consistently from test to test. Once the test compound and antibiotics are added the plates can be inoculated according to CLSI broth microdilution method. After inoculation the plates are incubated for 16-20 hours at 37° C., then the Minimal Inhibitory Concentration (MIC) of the test compound is determined visually.
(§5) Using the methodology described above, examples of the current invention were evaluated for their ability to inhibit the growth of β-lactamase-producing bacteria in the presence of a β-lactam antibiotic.
(§6) Representative results are shown in Table 4 where A represents an MIC of the fixed β-lactam antibiotic in the presence of >32 µg/mL of a β-lactamase inhibitor of exemplary compounds, B represents the MIC in the presence of between 8 and 32 µg/mL of a β-lactamase inhibitor of exemplary compounds, and C represents the MIC in the presence of ≤4 µg/mL of a β-lactamase inhibitor of exemplary compounds. NT=Not Tested.

[4] = tested on: E. coli ESBL4 expressing CTX-M-15; test: broth microdilution MIC, E. coli CTX-M-15; type: cell-based; details: Fixed CAZ (ceftazidime) 4 μg/mL
Description: as §4, §5, §6

[5] = biological target: T3, VIM-2 metallo β-lactamase (Pseudomonas aeruginosa, UniProt Q9K2N0); test: β-lactamase enzyme inhibition, VIM-2; type: biochemical; details: Nitrocefin 100 μM, 486 nm; 15 min at 37° C. preincubation; read-out: IC50 VIM-2 (Class B)
T3 construct: made in house; host or cells: E. coli BL21(DE3)
Procedure: For VIM-2 metallo β-lactamase, the procedure was identical with the following exceptions, first the protein was not pH adjusted to pH 5 with 50 mM sodium acetate. Second, the chromatography step was changed to a 5 ml Q sepharose anion exchange column pre-equilibrated with 50 mM Hepes pH 7.5, and elution of the protein was achieved by a linear gradient of NaCl (0-600 mM). Finally, the VIM-2 purification required a second run (3rd step) on the Q sepharose anion exchange column to achieve acceptable purity (>90%).
as §2, §3

[6] = tested on: E. cloacae 144200 expressing Class C P99 AmpC; test: broth microdilution MIC, E. cloacae P99; type: cell-based; details: Fixed CAZ (ceftazidime) 4 μg/mL
Description: as §4, §5, §6

[7] = tested on: K. pneumoniae A-1797 expressing KPC-2 and VIM-4; test: broth microdilution MIC, K. pneumoniae KPC-2 and VIM-4; type: cell-based; details: Fixed Mero (meropenem) 4 μg/mL
Description: as §4, §5, §6

[8] = biological target: T4, SHV-5 β-lactamase (Klebsiella pneumoniae, UniProt P0A3M1); test: β-lactamase enzyme inhibition, SHV-5; type: biochemical
T4 construct: made in house; host or cells: E. coli BL21(DE3)
Procedure: as §1, §2, §3

[9] = biological target: T5, KPC-2 β-lactamase (Klebsiella pneumoniae, UniProt Q9F663); test: β-lactamase enzyme inhibition, KPC-2; type: biochemical
T5 construct: made in house; host or cells: E. coli BL21(DE3)
Procedure: as §1, §2, §3

[10] = imipenem substrate, 300 nm, 15 min at 37° C. preincubation, read-out: IC50 KPC-2 (Class A)

T4 sequence (P0A3M1 22-286): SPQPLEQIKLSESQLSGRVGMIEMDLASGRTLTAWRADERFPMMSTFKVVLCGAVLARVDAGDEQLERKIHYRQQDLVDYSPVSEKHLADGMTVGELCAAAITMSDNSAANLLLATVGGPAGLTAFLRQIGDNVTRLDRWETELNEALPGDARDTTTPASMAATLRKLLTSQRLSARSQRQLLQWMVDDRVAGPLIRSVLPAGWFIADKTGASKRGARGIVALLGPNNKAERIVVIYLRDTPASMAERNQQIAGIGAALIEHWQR
T2 sequence (P05364 21-381): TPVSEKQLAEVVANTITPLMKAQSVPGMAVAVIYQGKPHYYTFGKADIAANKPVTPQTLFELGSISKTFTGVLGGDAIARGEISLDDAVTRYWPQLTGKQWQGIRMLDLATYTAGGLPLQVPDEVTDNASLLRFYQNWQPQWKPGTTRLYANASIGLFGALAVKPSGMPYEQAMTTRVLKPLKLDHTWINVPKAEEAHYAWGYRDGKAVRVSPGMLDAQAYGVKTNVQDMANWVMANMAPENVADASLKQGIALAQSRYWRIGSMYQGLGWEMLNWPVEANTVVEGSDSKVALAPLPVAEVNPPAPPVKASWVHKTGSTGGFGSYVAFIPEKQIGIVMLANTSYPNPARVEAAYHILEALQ
T5 sequence (Q9F663 25-293, looked up): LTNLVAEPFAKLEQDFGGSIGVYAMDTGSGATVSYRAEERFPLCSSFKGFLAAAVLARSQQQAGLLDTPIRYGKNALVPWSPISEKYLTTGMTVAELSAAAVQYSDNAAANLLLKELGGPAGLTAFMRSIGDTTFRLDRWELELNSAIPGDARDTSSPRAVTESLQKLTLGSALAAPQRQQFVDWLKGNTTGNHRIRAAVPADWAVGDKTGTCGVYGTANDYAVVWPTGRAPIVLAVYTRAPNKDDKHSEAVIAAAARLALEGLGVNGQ
T1 sequence (P13661 26-276): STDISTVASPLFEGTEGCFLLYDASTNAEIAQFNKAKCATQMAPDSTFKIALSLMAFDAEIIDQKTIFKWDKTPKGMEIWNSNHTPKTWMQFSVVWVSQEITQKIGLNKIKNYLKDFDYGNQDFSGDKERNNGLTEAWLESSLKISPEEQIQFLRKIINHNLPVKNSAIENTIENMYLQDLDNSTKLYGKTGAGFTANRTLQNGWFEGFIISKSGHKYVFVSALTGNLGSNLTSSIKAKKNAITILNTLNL

| Structure (SMILES) | IC50 [1] | IC50 [2] | MIC of exemplary compounds in presence of fixed β-lactams, K.P. 156319 KPC-3 [3] | MIC of exemplary compounds in presence of fixed β-lactams, E. coli ESBL4 CTX-M-15 [4] | IC50 [5] | MIC of exemplary compounds in presence of fixed β-lactams, E. cl. 144200 p99 AmpC [6] | MIC of exemplary compounds in presence of fixed β-lactams, K.P. A-1797 KPC-2 VIM-4 [7] | IC50 [8] | IC50 [9] | IC50 [9, 10] |
| --- | --- | --- | --- | --- | --- | --- | --- | --- | --- | --- |
| NS(=O)(=O)CCC(=O)N[C@H]1Cc2cccc(C(=O)O)c2OB1O [Example 35, (R)-2-Hydroxy-3-(3-sulfamoyl-propionylamino)-3,4-dihydro-2H-benzo[e][1,2]oxaborinin-8-carboxylic acid] | < 100 nM | < 100 nM | C (C represents the MIC in the presence of ≤4 g/mL of a β-lactamase inhibitor) | C (C represents the MIC in the presence of ≤4 g/mL of a β-lactamase inhibitor) | 100 to 1000 nM | C (C represents the MIC in the presence of ≤4 g/mL of a β-lactamase inhibitor) | C (C represents the MIC in the presence of ≤4 g/mL of a β-lactamase inhibitor) | < 100 nM | < 100 nM | – |
| NC(=O)NCC(=O)N[C@H]1Cc2cccc(C(=O)O)c2OB1O [Example 36, (R)-2-Hydroxy-3-(2-ureido-acetylamino)-3,4-dihydro-2H-benzo[e][1,2]oxaborinin-8-carboxylic acid] | < 100 nM | < 100 nM | C (C represents the MIC in the presence of ≤4 g/mL of a β-lactamase inhibitor) | C (C represents the MIC in the presence of ≤4 g/mL of a β-lactamase inhibitor) | 100 to 1000 nM | C (C represents the MIC in the presence of ≤4 g/mL of a β-lactamase inhibitor) | C (C represents the MIC in the presence of ≤4 g/mL of a β-lactamase inhibitor) | < 100 nM | – | 100 to 1000 nM |
| CNS(=O)(=O)CCC(=O)N[C@H]1Cc2cccc(C(=O)O)c2OB1O [Example 54, (R)-2-Hydroxy-3-(3-methylsulfamoyl-propionylamino)-3,4-dihydro-2H-benzo[e][1,2]oxaborinine-8-carboxylic acid] | – | < 100 nM | C (C represents the MIC in the presence of ≤4 g/mL of a β-lactamase inhibitor) | C (C represents the MIC in the presence of ≤4 g/mL of a β-lactamase inhibitor) | 1000 to 10000 nM | C (C represents the MIC in the presence of ≤4 g/mL of a β-lactamase inhibitor) | B (B represents the MIC in the presence of between 8 and 32 g/mL of a β-lactamase inhibitor) | < 100 nM | – | < 100 nM |
| CN(C)S(=O)(=O)CCC(=O)N[C@H]1Cc2cccc(C(=O)O)c2OB1O [Example 55, (R)-3-(3-Dimethylsulfamoyl-propionylamino)-2-hydroxy-3,4-dihydro-2H-benzo[e][1,2]oxaborinine-8-carboxylic acid] | – | < 100 nM | C (C represents the MIC in the presence of ≤4 g/mL of a β-lactamase inhibitor) | C (C represents the MIC in the presence of ≤4 g/mL of a β-lactamase inhibitor) | 1000 to 10000 nM | C (C represents the MIC in the presence of ≤4 g/mL of a β-lactamase inhibitor) | B (B represents the MIC in the presence of between 8 and 32 g/mL of a β-lactamase inhibitor) | < 100 nM | – | < 100 nM |
| COC(=O)NCC(=O)N[C@H]1Cc2cccc(C(=O)O)c2OB1O [Example 56, (R)-2-Hydroxy-3-(2-methoxycarbonylamino-acetylamino)-3,4-dihydro-2H-benzo[e][1,2]oxaborinine-8-carboxylicacid] | – | < 100 nM | C (C represents the MIC in the presence of ≤4 g/mL of a β-lactamase inhibitor) | C (C represents the MIC in the presence of ≤4 g/mL of a β-lactamase inhibitor) | 1000 to 10000 nM | C (C represents the MIC in the presence of ≤4 g/mL of a β-lactamase inhibitor) | B (B represents the MIC in the presence of between 8 and 32 g/mL of a β-lactamase inhibitor) | < 100 nM | – | 100 to 1000 nM |
| O=C(CNC(=O)c1ccccc1)N[C@H]1Cc2cccc(C(=O)O)c2OB1O [Example 60, (R)-3-(2-Benzoylamino-acetylamino)-2-hydroxy-3,4-dihydro-2H-benzo[e][1,2]oxaborinine-8-carboxylic acid] | – | < 100 nM | B (B represents the MIC in the presence of between 8 and 32 g/mL of a β-lactamase inhibitor) | C (C represents the MIC in the presence of ≤4 g/mL of a β-lactamase inhibitor) | 10000 to 100000 nM | C (C represents the MIC in the presence of ≤4 g/mL of a β-lactamase inhibitor) | B (B represents the MIC in the presence of between 8 and 32 g/mL of a β-lactamase inhibitor) | < 100 nM | – | < 100 nM |
